Test results reported in PMC6162817 (Toxins, 2018).
Where “and” joins values, the source holds several entries; their conditions need not be identical. Equal entries are not always repeated. Residues, ends and D or L forms follow the SMILES beside them. No end group written: not given here.

Experiments:
[1] = molecular target: RTA depurination activity on yeast ribosomes (Ricinus communis, UniProt P02879); experiment: biochemical; assay type: biochemical; details: for IC50: Yeast Ribosome IC50
[2] = molecular target: RTA depurination activity on rat liver ribosomes (Ricinus communis, UniProt P02879); experiment: biochemical; assay type: biochemical
[3] = molecular target: RTA–yeast ribosome interaction (Ricinus communis, UniProt P02879); assay type: binding

DDDMGFGLFD [P10]
IC50 [1]: 7.9 ± 1.7 µM
IC50 [2]: 83 ± 18 µM

GFGLFD [P6, G110FGLFD115]
inhibition of ribosome binding to RTA [3]: < 100%
IC50 [1]: 63 ± 13 µM

MGFGLFD [P7, M109GFGLFD115]
IC50 [1]: 34 ± 9.5 µM

CC(C)C[C@H](NC(=O)CN)C(=O)N[C@@H](Cc1ccccc1)C(=O)N[C@@H](CC(=O)O)C(=O)O [P4, G112LFD115] (H-GLFD-OH)
IC50 [1]: 102 ± 45 µM

DMGFGLFD [P8, D108MGFGLFD115]
IC50 [1]: 23 ± 4.4 µM
IC50 [2]: 267 ± 80 µM

SDDDMGFGLFD [P11]
Imax (maximal inhibition), yeast ribosome [1]: 90% and 89.7 ± 3.0%
IC50 [1]: 5 µM and 4.7 µM
IC50 [2]: 30.8 ± 6.3 µM
Imax (maximal inhibition), rat ribosome [2]: 90% and 89.4 ± 4.2%

DDMGFGLFD [P9]
IC50 [1]: 15 ± 1.5 µM
IC50 [2]: 142 ± 61 µM

FGLFD [P5, F111GLFD115]
IC50 [1]: 121 ± 44 µM
